Assay results from the supplement of paper PMC9912026.
± gives the uncertainty stated by the source.

System: A375
Test: pERK immunofluorescence, normalised; higher = more ERK phosphorylation
Conditions: vemurafenib 0 µM, drug treatment time 24 h
Experimental: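 A375 or A375 CRISPRa-EGFR (A375_Cra_F7_5/13) cells were adapted for 24 h to a cobimetinib dose series, with or without 1 uM vemurafenib, then stimulated with EGF (100 ng/mL) or mock medium and fixed at the indicated times. pERK was measured by immunofluorescence as the population mean normalised to baseline, with the SD of technical replicates (n=2).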

O=C(c1ccc(F)c(F)c1Nc1ccc(I)cc1F)N1CC(O)([C@@H]2CCCCN2)C1 [cobimetinib]
pERK immunofluorescence
Conditions | cobimetinib 31.62 pM | cobimetinib 0.0001 µM | cobimetinib 0.000316228 µM | cobimetinib 0.001 µM | cobimetinib 0.003162278 µM | cobimetinib 0.01 µM | cobimetinib 0.031622777 µM | cobimetinib 0.1 µM | cobimetinib 0.316227766 µM | cobimetinib 1 µM
EGF 0 ng/mL, time after EGF/mock 0.083 h | 0.965 ± 0.018 | 0.9579 ± 0.0028 | 0.873 ± 0.041 | 0.658 ± 0.028 | 0.313 ± 0.0071 | 0.16 ± 0.0032 | 0.1379 ± 0.0011 | 0.13 ± 0.0026 | 0.1264 ± 0.00022 | 0.1263 ± 0.00091
EGF 0 ng/mL, time after EGF/mock 0.5 h | 0.9998 ± 0.0072 | 0.958 ± 0.029 | 0.8944 ± 0.008 | 0.679 ± 0.0098 | 0.306 ± 0.013 | 0.157 ± 0.0021 | 0.135 ± 0.0013 | 0.1283 ± 0.00077 | 0.1262 ± 0.00025 | 0.126 ± 0.0013
EGF 0 ng/mL, time after EGF/mock 2 h | 0.961 ± 0.033 | 0.958 ± 0.053 | 0.904 ± 0.014 | 0.746 ± 0.025 | 0.358 ± 0.057 | 0.152 ± 0.0073 | 0.1311 ± 0.00015 | 0.1245 ± 0.00041 | 0.1235 ± 0.00032 | 0.1235 ± 0.00061
EGF 0 ng/mL, time after EGF/mock 8 h | 0.97332 ± 0.0006 | 0.972 ± 0.02 | 0.93 ± 0.011 | 0.7507 ± 0.0056 | 0.312 ± 0.032 | 0.132 ± 0.0023 | 0.1135 ± 0.001 | 0.113 ± 0.0043 | 0.105 ± 0.0012 | 0.1046 ± 0.00065
EGF 0 ng/mL, time after EGF/mock 24 h | 0.962 ± 0.021 | 0.985 ± 0.085 | 0.952 ± 0.037 | 0.817 ± 0.045 | 0.399 ± 0.058 | 0.1129 ± 0.00064 | 0.10189 ± 7.8e-06 | 0.103 ± 0.0015 | 0.1021 ± 0.00052 | 0.0982 ± 0.0013
EGF 100 ng/mL, time after EGF/mock 0.083 h | 1.19 ± 0.033 | 1.2 ± 0.04 | 1.133 ± 0.0081 | 1.18 ± 0.0047 | 1.39 ± 0.057 | 1.4 ± 0.028 | 1.37 ± 0.015 | 1.04 ± 0.03 | 0.268 ± 0.022 | 0.134 ± 0.0014
EGF 100 ng/mL, time after EGF/mock 0.5 h | 1.03 ± 0.057 | 1.03 ± 0.005 | 0.9538 ± 0.0018 | 0.887 ± 0.013 | 0.782 ± 0.024 | 0.594 ± 0.017 | 0.411 ± 0.015 | 0.333 ± 0.0083 | 0.336 ± 0.0073 | 0.144 ± 0.0022
EGF 100 ng/mL, time after EGF/mock 2 h | 0.959 ± 0.028 | 0.965 ± 0.052 | 0.891 ± 0.015 | 0.782 ± 0.013 | 0.4241 ± 0.0024 | 0.176 ± 0.003 | 0.136 ± 0.0016 | 0.1271 ± 0.00033 | 0.1234 ± 0.00085 | 0.12285 ± 0.00011
EGF 100 ng/mL, time after EGF/mock 8 h | 0.946 ± 0.016 | 0.9729 ± 0.00013 | 0.909 ± 0.046 | 0.786 ± 0.042 | 0.487 ± 0.036 | 0.168 ± 0.012 | 0.124 ± 0.0018 | 0.114 ± 0.0024 | 0.1065 ± 0.00016 | 0.1039 ± 0.00017
EGF 100 ng/mL, time after EGF/mock 24 h | 0.8607 ± 0.0067 | 0.897 ± 0.04 | 0.854 ± 0.023 | 0.773 ± 0.0081 | 0.518 ± 0.007 | 0.128 ± 0.0053 | 0.1071 ± 0.00016 | 0.1048 ± 0.00075 | 0.104 ± 0.00095 | 0.0978 ± 0.0009
